Values quoted from earlier work as cited in US11903921B2 (priority 2020, dated 2024).

Assays:
SEB-exposed mice = conditions: mouse, in vivo
[1] = tested on: LPS-induced acute pulmonary inflammation; conditions: 100 μmol/kg bodyweight, mouse
hyaluronan = conditions: inhibitor of hyaluronan; compared with 4-MU
ovalbumin-induced asthma = conditions: through inhibition of NF-κB activity
[2] = animal and human studies; orally in water, inhaled, intravenous
[3] = tested on: influenza and respiratory tract infections; conditions: prophylaxis and treatment

## Cc1cc(=O)oc2cc(O)ccc12 [4-MU, 7-Hydroxy-4-methyl-2H-chromen-2-one]
SEB-exposed mice
  SEB-induced lung permeability: reduction in SEB-induced lung permeability
  cytokine production: reduced cytokine production
  expression of HAS-1, HAS-2, and HAS-3: reduces expression of HAS-1, HAS-2, and HAS-3
  levels of HA in the lungs: reduced levels of HA

## O=c1c(O)c(-c2ccc(O)c(O)c2)oc2cc(O)ccc12 [Fisetin]
[1]
  anti-inflammatory effects compared with dexamethasone: more pronounced than dexamethasone
  measures of inflammation: significantly reduced numerous measures of inflammation
hyaluronan
  effective dose relative to 4-MU: 10 times lower
basophils
  expression of T(H)2-type cytokines (IL-4, IL-13, and IL-5): powerfully suppress
ovalbumin-induced asthma
  efficacy in ovalbumin-induced asthma: effective

## [HH] [Molecular hydrogen]
[2]
  harmlessness: essentially harmless

## CCCCCCCCCCCCCCCC(=O)NCCO [PEA, palmitoylethanolamide]
[3]
  efficacy and safety in influenza and respiratory tract infections: effective and safe
